Drawing on the Bradley open melting point set (2014), this text covers melting point for 89 molecules.

Structures are written as SMILES. “And” between values parts separate entries of the source, which are not always exact repeats. Equal entries are not always repeated.

`CC1(C)C2CC[C@]1(C)C(=O)C2` [(1S)-1,7,7-Trimethylbicyclo[2.2.1]heptan-2-one] had a melting point of 179 °C. `[2H]OC([2H])([2H])C([2H])([2H])[2H]` [(~2~H_5_)Ethan(~2~H)ol]: the melting point is -114 °C. In turn, `OB(O)c1cccc(OCc2ccccc2)c1` [3-benzyloxybenzeneboronic acid] gave a melting point of 123 °C. The same measure for `Nc1ccccc1[N+](=O)[O-]` [2-Nitroaniline]: 72 °C; for `CC(=O)OCC1OC(Oc2ccc(C)cc2)C(OC(C)=O)C(OC(C)=O)C1OC(C)=O` (centres undefined) [4-methylphenyl 2,3,4,6-tetra-O-acetylhexopyranoside]: 126 °C; for `Cc1cc(-c2ccc(NC=O)c(C)c2)ccc1NC=O` [N,N'-(3,3'-dimethylbiphenyl-4,4'-diyl)diformamide]: 268 °C. Turning to `CCCc1ccccc1` [N-propylbenzene], the melting point is -100 °C.

In the case of `Cc1cnc(s1)NC(=O)C\3=C(/O)c2ccccc2S(=O)(=O)N/3C` [meloxicam], the melting point stood at 254 °C. The figure for `Clc1ccc(C(Cl)(Cl)Cl)cc1` [4-chlorobenzotrichloride] is 6 °C; for `Cc1c(O)cccc1O` [2-methylresorcinol] it is 120 °C. `ON=C(/C(=N\O)c1ccco1)c1ccco1` [2,2'-furil dioxime] returned a melting point of 165 °C.

Turning to `CC1=CC=C(C)C2=C(C)C=CC(C)=C1C2` [2,5,7,10-tetramethylbicyclo[4.4.1]undeca-1,3,5,7,9-pentaene], the melting point was found to be 72 °C. The figure for `CC(NC(=O)COCCN1C(=O)c2ccccc2C1=O)C(=O)NC(CCC(=O)O)C(=O)O` (centres undefined) is 194 °C; for `O=C1CN(/N=C/c2ccc([N+](=O)[O-])o2)C(=O)N1` [Nitrofurantoin] it is 268 °C; for `CCCCCCCCCCCCS` [1-dodecanethiol] it is -7 °C. In turn, `Oc1ccc2ccccc2c1N=Nc1nccs1` [1-(2-thiazolylazo)-2-naphthol] yielded a melting point of 139 °C. `S=C=S` [carbon disulfide]: the melting point is -112 °C. The figure for `O=C(/C(=N/Nc1cccnc1)C(=O)C(F)(F)F)c1cccs1` is 151 °C. The same measure for `C[C@@H](O)[C@H](O)[C@H](O)[C@@H](O)C=O` [D-fucose]: 145 °C. The same measure for `Cc1c[nH]c2ccccc12` [3-methylindole]: 96 °C; for `OC(CS)C(O)CS` (centres undefined) [1,4-Disulfanylbutane-2,3-diol]: 43 °C. `COc1ccc(O)cc1` [4-Methoxyphenol]: the melting point turned out to be 56 °C. The same measure for `O=C(O)c1ccccc1Nc1cccc(C(F)(F)F)c1` [flufenamic acid]: 134 °C; for `CCCCC(=O)CC` [Heptan-3-one]: -39 °C. The figure for `CCCCCCCCCCO` [1-decanol] is 7 °C; for `CSc1ccc(B(O)O)cc1` [4-(methylthio)benzeneboronic acid] it is 210 °C. As to `CC(C)(C)NC(=O)C(c1ccccc1)N(Cc1ccco1)C(=O)CNC(=O)OC(C)(C)C` (centres undefined) [Ugi product 206B(UC)], the melting point worked out at 203 °C. The figure for `CCOC=C(C#N)C(=O)OCC` [ethyl (ethoxymethylene)cyanoacetate] is 50 °C. The same measure for `CCCC(C)(COC(N)=O)COC(N)=O` [2-[(Carbamoyloxy)methyl]-2-methylpentyl carbamate]: 105 °C. The figure for `CC(C)(C)NCC(O)COc1cccc2c1C[C@H](O)[C@H](O)C2` (some centres undefined) [nadolol] is 125 °C. For `Cc1cc(C)c(NC(=O)CN(CC(=O)O)CC(=O)O)c(C)c1Br`, the melting point worked out at 194 °C. The figure for `CC1(c2ccccc2)C(=O)NC(=O)NC1=O` [heptobarbital] is 228 °C. The same measure for `O=C(O)/C=C/c1ccc(C(F)(F)F)cc1` [trans-4-(trifluoromethyl)cinnamic acid]: 232 °C. `OB(O)C1CC1` [cyclopropylboronic acid] came in with a melting point of 93 °C. The figure for `CC(=O)O` [Acetic acid] is 16.7 °C; for `CCOC(=O)c1ccc(O)cc1` [ethyl 4-hydroxybenzoate] it is 117 °C; for `O=C(O)c1c(O)cccc1F` [6-fluorosalicylic acid] it is 160 °C.

On to `C=C(C)CCC(=C)C` [2,5-dimethyl-1,5-hexadiene], for which the melting point is -75 °C.

The molecule `Cc1cccc(-c2nc(-c3ccccc3)cs2)c1` [4-phenyl-2-(m-tolyl)thiazole] came in with a melting point of 48 °C. The figure for `NNC(=O)c1ccncc1` [Isoniazid] is 171 °C; for `C=C(C)C(=O)O` [methacrylic acid] it is 16 °C. The figure for `CCCCC(C)=O` [2-hexanone] is -56 °C. The figure for `Cc1ccc(O)c(Br)c1` [2-bromo-4-methylphenol] is 16 °C; for `OCCCCCO` [1,5-pentanediol] it is -16 °C; for `CCCC(=O)NNc1ccccc1` [N'-phenylbutanehydrazide] it is 104 °C. In turn, `N#CCc1ccc(CC#N)cc1` [1,4-phenylenediacetonitrile] showed a melting point of 96 °C.

Turning to `CCC1(c2ccccc2)C(=O)NC(=O)NC1=O` [phenobarbital], the melting point is 174 °C and 176 °C. `Clc1ccc(Cl)cc1` [p-dichlorobenzene]: the melting point turned out to be 53 °C. `[C-]#[N+]c1cnn(-c2ncnc3c2cnn3C)c1/C=C/OCC`: the melting point was determined as 155 °C. `OB(O)c1c(F)c(F)cc(F)c1F` [2,3,5,6-tetrafluorobenzeneboronic acid] had a melting point of 143 °C.

For `CCCCC(=O)O` [N-Valeric Acid], the melting point was -34 °C.

Take `Cc1cc(O)c(C)c(=O)o1` [3,6-dimethyl-4-hydroxy-2-pyrone]: the melting point was determined as 210 °C. For `OC[C@@H]1[C@H](CO)[C@@H]2C=C[C@H]1C2` [5-norbornene-2-endo,3-endo-dimethanol], the melting point is 84 °C. Consider `Cc1cccc(I)c1` [3-iodotoluene], for which the melting point is -27 °C. The same measure for `Clc1c(Cl)c(Cl)c(Cl)c(Cl)c1Cl` [hexachlorobenzene]: 230 °C and 229 °C; for `Cc1cc(Br)ccc1N` [4-bromo-2-methylaniline]: 58 °C. The figure for `COc1cccc(N)c1` [m-anisidine] is 0 °C; for `CC(C(=O)O)c1cccc(C(=O)c2ccccc2)c1` (centres undefined) [ketoprofen] it is 94 °C (2×) and 93 °C. The same measure for `Clc1ccccc1C(c1ccccc1)(c1ccccc1)n1ccnc1` [Clotrimazole]: 148 °C; for `CCOC(=O)c1c(O)cc(C)nc1O` [ethyl 2,4-dihydroxy-6-methylnicotinate]: 212 °C; for `ClC/C=C/c1ccccc1` [cinnamyl chloride]: 7 °C. With `O=C1OC2(c3ccc(O)cc3Oc3cc(O)ccc32)c2ccccc21` [Fluorescein], the melting point is 315 °C. `O=C(O)c1ccc(Br)c(C(=O)O)c1` [4-bromoisophthalic acid] registered a melting point of 299 °C.

For `Cc1ccc(O)c(C(C)(C)C)c1` [2-tert-butyl-4-methylphenol], the melting point came to 52 °C. The same measure for `CCOC(=O)C(=Nn1nnc2ccccc21)C(=O)OCC` [diethyl (1h-benzotriazol-1-yl)iminomalonate]: 100 °C.

On to `O=C(/C=C/c1ccccc1)c1ccccc1` [trans-chalcone], for which the melting point amounted to 56 °C. As for `Cc1noc(NS(=O)(=O)c2ccc(N)cc2)c1C` [sulfisoxazole], the melting point was 191 °C and 194 °C.

Regarding `BrCCCCBr` [1,4-dibromobutane], the melting point is -17 °C. The figure for `CC(=O)c1cccc(N)c1` [m-aminoacetophenone] is 97 °C; for `Oc1ccnc2ccc(C(F)(F)F)cc12` [4-hydroxy-6-(trifluoromethyl)quinoline] it is 267 °C; for `O=C(O)CO` [Glycol acid] it is 80 °C.

Turning to `OB(O)c1cccc2ncccc12` [quinoline-5-boronic acid], the melting point was 146 °C. For `O=C(NCc1ccccc1)c1ccccc1` [N-benzylbenzamide], the melting point is 106 °C. In turn, `CC(O)CO` (centres undefined) [Propylene glycol] yielded a melting point of -60 °C. The same measure for `CCOc1ccc(C=O)cc1` [4-ethoxybenzaldehyde]: 14 °C. The same measure for `O=C(O)[C@@H]1[C@H](C(=O)O)[C@H]2C=C[C@@H]1C2` [(1R,2R,3S,4S)-Bicyclo[2.2.1]hept-5-ene-2,3-dicarboxylic acid]: 150 °C; for `C[C@]12CC[C@@H]3c4ccc(O)cc4CC[C@H]3[C@@H]1CC[C@@H]2O` [estradiol]: 176 °C and 178 °C; for `CC(C)I` [2-iodopropane]: -90 °C. Regarding `CC(C)(C)[SiH](Cl)C(C)(C)C` [Di-tert-butyl(chloro)silane], the melting point was 39 °C. The figure for `CN(C)c1ccc(/C=C2\C(=O)C3CCC(C)(C2=O)C3(C)C)cc1` (centres undefined) is 153 °C; for `CC12CCC3C(CCC4(C)CC5(CCC34C)OCCO5)C1CCC2=O` (centres undefined) it is 159 °C.

Molecule `CC(C)(C)OC(=O)N1CCC[C@H]1C(=O)O` [N-boc-L-proline] showed a melting point of 134 °C. For the molecule `Cc1ccccn1` [2-picoline], the melting point is -70 °C. The same measure for `[2H]C([2H])([2H])C([2H])([2H])C([2H])([2H])C([2H])([2H])C([2H])([2H])C([2H])([2H])C([2H])([2H])C([2H])([2H])C([2H])([2H])C([2H])([2H])[2H]` [(~2~H_22_)Decane]: -30 °C; for `N#CCC(=O)c1ccccc1` [Cyanoacetophenone]: 83 °C.

Molecule `CC(C)(C)NCC(O)COc1cccc2c1CC(O)C(O)C2` (centres undefined) gave a melting point of 124 °C. The same measure for `O=C(O)c1ccc(-c2ccccc2)cc1` [p-phenylbenzoic_acid]: 227 °C.

Molecule `CCOC(=O)/C=C/c1ccccc1` [ethyl cinnamate] had a melting point of 7 °C. The figure for `Cc1c(C#N)c2ccccc2n1O` [1-hydroxy-2-methyl-1H-indole-3-carbonitrile] is 159 °C.
